Reference: paper PMC9229563, “Pharmacokinetics and the Dermal Absorption of Bromochlorophene, a Cosmetic Preservative Ingredient, in Rats” (Toxics, 2022)
Like-named read-outs stand apart in the source and are kept apart here.

How the values were obtained:
[1] = parameters: method as in PMID 34335256; settings: hydrogel formulation, 0.262 mg/kg rat dorsal application; cited from earlier work
thyroid receptor α = test system: thyroid receptor α; parameters: method as in PMID 33064576; settings: in silico and in vitro studies; cited from earlier work
glucocorticoid receptor = test system: glucocorticoid receptor; parameters: method as in PMID 33064576; settings: in silico and in vitro studies; cited from earlier work
estrogen receptor α = test system: estrogen receptor α; parameters: method as in PMID 33064576; settings: in silico and in vitro studies; cited from earlier work
gram-positive bacteria = test system: gram-positive bacteria; parameters: method as in Table S1; settings: ref Table S1; cited from earlier work
[2] = Dermal pharmacokinetics / in vivo dermal absorption in rats; parameters: species or system rat
Protocol: Blood samples (approximately 0.2 mL) were taken periodically by cannulated right jugular vein at 15 and 30 min, and 1, 2, 4, 8, 12, 24, 36, and 48 h post-dose. […] To analyze the in vivo (dermal and i.v. application) samples, 50 µL of the plasma was used, and extraction and analysis methods were the same as in vitro samples. […] The slope of the last phase (λz) is the individual estimate of the terminal elimination rate constant, which is calculated using log-linear regression of the terminal portions of the plasma concentration–time curves. The area under the plasma concentration–time curve from time zero to the last observation time point (AUCall) was calculated using the trapezoidal rule, and the AUC to infinity time (AUCinf) was obtained by adding Cn/λz to the AUCall (Cn: last concentration of chemical). Systemic clearance (CL) was calculated as dose/AUC. The apparent volume of the distribution (Vd) during the terminal phase was calculated as CL/λz. The peak plasma concentration (Cmax) and time to reach Cmax (Tmax) were determined directly from these observations. […] The plasma concentration–time data were analyzed using a non-compartmental WinNonlin model (version 2.1, Pharsight, NC, USA) to acquire i.v. and dermal pharmacokinetic parameters.

gram-negative bacteria = test system: gram-negative bacteria; parameters: method as in Table S1; settings: ref Table S1; cited from earlier work
[3] = parameters: method as in PMID 34335256; settings: female rats, oral, 28 days, 500 and 1000 mg/kg; cited from earlier work
androgen receptor = test system: androgen receptor; parameters: method as in PMID 33064576; settings: in silico and in vitro studies; cited from earlier work
[4] = parameters: method as in Table S1; settings: ref Table S1; cited from earlier work
yeasts / moulds = test system: yeasts / moulds; parameters: method as in Table S1; settings: ref Table S1; cited from earlier work
thyroid receptor β = test system: thyroid receptor β; parameters: method as in PMID 33064576; settings: in silico and in vitro studies; cited from earlier work
[5] = Stability of BCP in receptor fluid (6% POE20); format: physicochemical; settings: 0.5 mg/mL, 48 h, 32 °C, sink conditions, n = 3
Protocol: The in vitro dermal absorption study followed the guidelines of the Korea Ministry of Food and Drug Safety [15] with a Franz diffusion cell system consisting of a vision Microette auto-sampler, stirring drive, circulating water bath, stirring control, and autofill (Hanson, Chatsworth, CA, USA). The volume of the receptor fluid chamber was 12 mL and the temperature of the receptor fluid was maintained in a circulating water bath at 32 °C. […] The skin, after hydrating with normal saline for 5 min, was then placed between the donor and receptor compartments of the diffusion cells. […] Each formulation (~200 mg) was applied to 1.77 cm^2 of the donor chamber.

[6] = cited from earlier work
[7] = Intravenous pharmacokinetics in rats; format: in vivo; settings: rat; for half-life / AUC / AUC(0-inf) / clearance / Cmax / Vd: plasma, iv, n = 3; for half-life: glycerol formal, read-out: T1/2, terminal elimination half-life (converted); for clearance: read-out: CL, systemic clearance (converted); for Cmax: read-out: Cmax, peak plasma concentration; for Vd: read-out: Vd, volume of distribution
Protocol: Blood samples (>0.2 mL) for plasma were collected by cannulated right jugular vein at 1, 2, 5, 10, and 30 min, and 1, 2, 4, 6, 12, 24, 36, and 48 h post-dose. Plasma samples were harvested by centrifugation at 13,000 rpm for 10 min and stored at −20 °C until analysis.
To analyze the in vivo (dermal and i.v. application) samples, 50 µL of the plasma was used, and extraction and analysis methods were the same as in vitro samples.
In the in vivo study, the terminal elimination half-life (T1/2) was calculated to be 0.693/λz. The slope of the last phase (λz) is the individual estimate of the terminal elimination rate constant, which is calculated using log-linear regression of the terminal portions of the plasma concentration–time curves. The area under the plasma concentration–time curve from time zero to the last observation time point (AUCall) was calculated using the trapezoidal rule, and the AUC to infinity time (AUCinf) was obtained by adding Cn/λz to the AUCall (Cn: last concentration of chemical). Systemic clearance (CL) was calculated as dose/AUC. The apparent volume of the distribution (Vd) during the terminal phase was calculated as CL/λz. The peak plasma concentration (Cmax) and time to reach Cmax (Tmax) were determined directly from these observations. The relative bioavailability (F) after dermal application was calculated as F (%) = 100 (Doseiv·AUCdermal)/(Dosedermal·AUCiv).
The plasma concentration–time data were analyzed using a non-compartmental WinNonlin model (version 2.1, Pharsight, NC, USA) to acquire i.v. and dermal pharmacokinetic parameters.

In the case of `Oc1c(Br)cc(Cl)cc1Cc1cc(Cl)cc(Br)c1O` [BCP, 2,2'-Methylenbis (6-bromo-4-chlorophenol)], the BCP absorption [1] is given as 29.25 ± 6.09%, the “Action on thyroid receptor α” value (thyroid receptor α) is given as “antagonist” and the “Action on glucocorticoid receptor” value (glucocorticoid receptor) is given as “antagonist”. The “Action on estrogen receptor α” value (estrogen receptor α) was “antagonist”, the “Effect of preservative, gram-positive bacteria” value (gram-positive bacteria) was “good” and the “Representative (total) dermal absorption of BCP” value ([2]; determined from the in vivo PK / dermal study in rats) was 12.20 ± 2.63%. For the same molecule, the bioavailability ([2]; rat, plasma, topical, 234 mg/kg formulation, read-out: F, dermal bioavailability) was 12.2 ± 2.63%, the “Effect of preservative, gram-negative bacteria” value (gram-negative bacteria) was “moderate” and the “Hematological and histopathological characteristics” value [3] was “altered”. The “Action on androgen receptor” value (androgen receptor) was “antagonist”, the Solubility in water [4] was less than 5 µg/mL and the “Effect of preservative, yeasts / moulds” value (yeasts / moulds) was “inadequate”. For the same molecule, the “Action on thyroid receptor β” value (thyroid receptor β) was “antagonist”, the “Stability in 6% POE20” value [5] was “stable” and the LogPow ([6]; ref Table S1) was 6.12. For the same molecule, the half-life ([7]; i.v. 0.2 mg/kg) was 34.5 ± 5.87 h, the AUC ([7]; i.v. 0.2 mg/kg) was 4190 ± 320 ng·h/mL and the AUC(0-inf) ([7]; i.v. 0.2 mg/kg) was 5860 ± 767 ng·h/mL. It also gave a clearance ([7]; i.v. 0.2 mg/kg) of 0.576 mL/min/kg, a Cmax ([7]; i.v. 0.2 mg/kg) of 4190 ± 1690 ng/mL and a Vd ([7]; i.v. 0.2 mg/kg) of 1.74 ± 0.072 L/kg. The half-life ([7]; i.v. 1 mg/kg) was 30.5 ± 1.83 h, the AUC ([7]; i.v. 1 mg/kg) was 30500 ng·h/mL and the AUC(0-inf) ([7]; i.v. 1 mg/kg) was 41600 ng·h/mL. For the same molecule, the clearance ([7]; i.v. 1 mg/kg) was 0.401 mL/min/kg, the Cmax ([7]; i.v. 1 mg/kg) was 11400 ng/mL and the Vd ([7]; i.v. 1 mg/kg) was 1.06 ± 0.0502 L/kg. The “AUCs (AUCall and AUCinf) in plasma at 1 mg/kg versus 0.2 mg/kg” value ([7]; i.v.) was “approximately 7 fold”.

For `COc1ccc(C(=O)c2ccccc2)c(O)c1` [benzophenone-3], the LogPow [6] is listed as 3.58.

For `CCCCC(CC)COC(=O)C=Cc1ccc(OC)cc1` (centres unmarked) [ethylhexyl methoxycinnamate], the LogPow [6] is given as 5.96.

In the case of `CC1CC(OC(=O)c2ccccc2O)CC(C)(C)C1` (centres unmarked) [homosalate], the LogPow [6] is listed as 5.94.

For `C[C@]12CC[C@H]3[C@@H](CCC4=CC(=O)CC[C@@]43C)[C@@H]1CC[C@@H]2O` [testosterone, reference compound], the LogPow [6] is given as 3.3.
